Test results published in patent publication US7659278B2, “Use of low molecular weight compounds for preparing a medicament useful in treating mutant p53 mediated diseases” (Aprea AB, priority 2002, dated 2010).
pIC50: −log10 of the molar value. Where two headings read alike, the source gives them in different places.

What was measured:
[1] = tested on: H1299-His-175 lung adenocarcinoma cells; assay: WST-1 growth inhibition by structural analogues, H1299-His-175 cells with or without doxycycline; format: cell-based, human; details: for pIC50: Homo sapiens, 48 h, WST-1; for R H1299-His175: ratio IC50p53null/IC50mtp53
Experimental: (§1) After 12h cells were treated with analogues and incubated with compounds for 48 h. Then WST-1 cell proliferating reagent was added to each well and cell survival was estimated by reading absorbance at 450 nm by ELISA reader. The effect of structural analogues on cell growth was tested using different concentrations of the compounds, ranging from 0.1; 1; 5; 10 and 25 μM. After that curves of growth inhibition were generated based on a rational function Y=(b+cx)/1+ax by using Microcal Origin software. The coefficients (a,b,c) of the equation were determined by employing Levenberg-Marquardt algorithm.
(§2) The specificity of each compound was determined by calculation of ratio IC50p53null/IC50mtp53. Ratios equal to 1 or less are indicating non-specific activity.

[2] = tested on: Saos-2-His-273 osteosarcoma cells; assay: WST-1 growth inhibition by structural analogues, Saos-2-His-273 cells with or without doxycycline; format: cell-based, human; details: for pIC50: Homo sapiens, 48 h, WST-1; for R Saos-2His273: ratio IC50p53null/IC50mtp53
Experimental: as §1, §2

[3] = Dox+ (p53 null), read-out: IC50 H1299-His175 Dox+
[4] = Dox− (mutant p53 expressed), read-out: IC50 H1299-His175 Dox−
[5] = Dox+ (p53 null), read-out: IC50 Saos-2His273 Dox+
[6] = Dox− (mutant p53 expressed), read-out: IC50 Saos-2His273 Dox−

| SMILES | pIC50 [1, 3] | pIC50 [1, 4] | R H1299-His175 [1] | pIC50 [2, 5] | pIC50 [2, 6] | R Saos-2His273 [2] |
| --- | --- | --- | --- | --- | --- | --- |
| O=C1C2CCN(CC2)C1CN1C=NC2C(Cl)=NC(Cl)=NC21 (stereo not drawn) [2-(2,6-dichloro-9-methylenepurine)-3-quinuclidinone] | 5.31 | 5.49 | 1.53 | 5.21 | 5.60 | 2.44 |
| Cc1cc2ncn(CC3C(=O)C4CCN3CC4)c2cc1C (stereo not drawn) [2-(5,6-dimethyl-benzimidazole-1-methylene)-3-quinuclidinone] | 5.15 | 5.32 | 1.51 | 5.03 | 5.40 | 2.31 |
| COc1ncnc2c1ncn2CC1C(=O)C2CCN1CC2 (stereo not drawn) [2-(6-methoxypurine-9-methylene)-3-quinuclidinone] | 4.63 | 4.81 | 1.5 | 4.58 | 4.86 | 1.9 |
| Cn1c(=O)c2c([nH]c(=O)n2CC2C(=O)C3CCN2CC3)n(C)c1=O (stereo not drawn) [2-(7-methylene-1,3-dimethyluric acid)-3-quinuclidinone] | 5.28 | 5.39 | 1.26 | 5.26 | 5.56 | 2.01 |
| Nc1ncnc2nnn(CC3C(=O)C4CCN3CC4)c12 (stereo not drawn) [2-(8-azaadenine-7-methylene)-3-quinuclidinone] | 5.38 | 5.48 | 1.27 | 5.14 | 5.55 | 2.61 |
| C=Cc1nc2ccccc2c(=O)[nH]1 [2-ethylene-4(3H)-quinazolinone] | 5.41 | 5.85 | 2.8 | 5.30 | 5.40 | 1.27 |
| CN1C(=O)C=CC1=O [N-methylmaleimide] | 5.27 | 5.54 | 1.86 | 5.19 | 5.39 | 1.6 |
| O=C1C=CC(=O)N1 [maleimide] | 5.28 | 5.52 | 1.73 | 5.12 | 5.47 | 2.25 |
